Results on 1 compound are retold here after article PMC7442133, “Reduced treatment frequencies with bumped kinase inhibitor 1369 are effective against porcine cystoisosporosis” (International Journal for Parasitology: Drugs and Drug …, 2020).

In one series the test system is C. suis merozoites. Nature of the series: Merozoite replication (growth) inhibition in infected IPEC-1 cultures, free merozoites counted 9 dpi. In kind it is cell-based, Cystoisospora suis. The following applies: 400 nM once at 2 dpi; vs DMSO-only and no-treatment controls. The protocol: The laboratory strain C. suis Wien I ([Joachim and Mundt, 2011]), was maintained by passage in suckling piglets every 3–6 months and infectivity in vivo was assessed regularly at the Institute of Parasitology, University of Veterinary Medicine, Vienna. Oocysts were purified from collected feces, brought to sporulation and stored as described elsewhere ([Worliczek et al., 2013]). For in vitro studies, sporozoites were excysted ([Worliczek et al., 2013]), enumerated with a hemocytometer and used immediately for infection of semi-permanent intestinal porcine epithelial cells (IPEC-1). For in vivo studies, sporulated oocysts were washed with tap water and enumerated prior to infection of piglets.
IPEC-1 cells were maintained in culture medium at 37 °C and 5% CO2 (DHEM/HAM12 supplemented with 5% fetal calf serum and penicillin/streptomycin; Gibco via Thermo Fisher, Vienna, Austria). Cells (4 × 10^4) were used to seed 24-well plates and grown to confluence. All BKI compounds were stored as 20 mM stock solutions in 100% dimethyl sulfoxide (DMSO) at −20 °C. Cell viability in the presence of DMSO and BKIs was determined by colorimetric cell proliferation (WST-1) assays ([Shrestha et al., 2019]). In addition IPEC-1 cells were infected with serial dilutions of C. suis sporozoites, obtained after excystation to evaluate the growth curves of merozoites during 5–9 days of cultivation. To determine the effect of BKI 1369 on parasite replication, sporozoites (5 × 10^2) were added to each well one day after seeding of host cells and incubated with different concentrations of BKI 1369 at 40 °C for various time periods or a DMSO control, in triplicate.
In order to test whether BKI 1369 affects initial host cell invasion by C. suis, freshly excysted sporozoites were pre-incubated with BKI 1369 or DMSO for 6 h at 37 °C. Subsequently, sporozoites were washed with medium and used for infection of cell monolayers (5 × 10^2/well), in triplicate. Readout for both growth (merozoite replication) and invasion-inhibition experiments was microscopical evaluation by counting free merozoites 9 days post-infection (dpi) from culture supernatants. Supernatants were collected and free merozoites were counted in pooled samples at 9 dpi from quadruplicate wells in C-Chip disposable hemocytometers (NanoEnTek/Roth Lactan, Graz, Austria). All assays included DMSO and no-treatment controls in quadruplicate.
Statistical calculations for in vivo trials were performed with RStudio version 1.1.453 (RStudio Team, 2018), descriptive statistics with Microsoft Excel 2010 (Microsoft Inc., Vienna, Austria) and GraphPad Prism version 5.04 for Windows (GraphPad Software, San Diego, California USA). Differences in clinical and parasitological parameters between groups were analyzed with ANOVA in the case of normal distribution and variance homogeneity of the data, or a Kruskal-Wallis rank sum test if this was not the case. In the event of significance for the omnibus tests, parametric or non-parametric post-hoc tests for multiple comparisons were performed (according to Tukey and Conover, respectively), with P-value adjustment after Bonferroni. In vitro assays were evaluated by t-tests with significance reported at P < 0.05. For testing of efficacy in vitro, the percentage of growth/invasion inhibition was calculated as follows: % inhibition = (1−No. of merozoites counted at 9 dpi in BKI 1369 treated culture /No. of merozoites counted at 9 dpi in DMSO-only treated culture)x100

Series [1] in a line: Fecal drug kinetics: BKI concentrations in pooled feces by LC-MS/MS. The class given is in vivo, piglets. The protocol: Additionally, to determine exposure to BKI 1369 and its metabolites, BKI 1318 and BKI 1817, pooled fecal samples per group were collected before treatment (−24 h), 2, 24 and 48 h after treatment and at the end of the study (SD 29; experiment I). Approximately 1 g of feces was soaked overnight in 3 ml phosphate buffered saline (PBS, pH 7.4). The following day, 12 ml of acetonitrile containing 100 μM propanolol as an internal standard was added and the mixture was thoroughly vortexed and centrifuged at 1000×g for 30 min. Clear supernatant was then transferred to Eppendorf tubes and concentrated in a miVac® Duo Concentrator (SP Scientific, Pennsylvania, USA) at 35 °C. Control/blank samples spiked with known amounts of target analyte were processed in tandem to provide a standard curve. The concentrated samples were shipped to the University of Washington and were stored at −20 °C until analysis by liquid chromatography-tandem mass spectrometry (LC-MS/MS) to determine fecal pharmacokinetics. All LC-MS/MS analyses were carried out on a Waters Acquity UPLC coupled with a Xevo TQS Micro and analyzed using MassLynx software (Waters Corporation, Milford, MA, USA). Extraction and LC-MS/MS conditions are described in detail in the Supplementary File S1.
Tissue and feces from vehicle control treated piglets were used as blanks or standards. Calibration curves for BKI 1369, BKI 1318, and BKI 1817 were prepared by adding 2 μL BKI in dimethylsulfoxide (DMSO) to 18 μL tissue or feces controls to generate nominal concentrations of 0.004, 0.008, 0.02, 0.04, 0.08, 0.2, 0.4, 0.8, 2, 5, 10, and 20 μM. Calibration curves were generated separately for each tissue type and feces.
5 μL of tissue homogenate curves and samples were added to tubes that contained 95 μL of 80:20 acetonitrile: water. As an internal standard, propranolol was added to each sample to a final concentration of 20 nM. Samples were dried to completion using a miVac Duo Concentrator (SP Scientific, Pennsylvania, USA) at 35 °C. Sample processing for feces was similar but utilized a slightly different process to concentrate the sample as explained in the methods. Dried Samples were sealed and shipped to the University of Washington for LC-MS/MS analysis.

Take `CN1CCC(Cn2nc(-c3ccc4nc(O)ccc4c3)c3c(N)ncnc32)CC1` [BKI 1817]: in the series with C. suis merozoites, the “Decrease of total merozoite counts” value came out at 69.6%. The “Concentration in pooled fecal samples” value was 0.0 µM in series [1] (Group A (20 mg BKI 1369/kg BW; 0 dpi), SD 2, −24 h (before treatment)); 0.0 µM in series [1] (Group A (20 mg BKI 1369/kg BW; 0 dpi), SD 3, 2 h post first-dose); 54.0 µM in series [1] (Group A (20 mg BKI 1369/kg BW; 0 dpi), SD 4, 24 h post first-dose); 60.8 µM in series [1] (Group A (20 mg BKI 1369/kg BW; 0 dpi), SD 5, 48 h post first-dose); 0.0 µM in series [1] (Group A (20 mg BKI 1369/kg BW; 0 dpi), SD 29, 624 h post first-dose); 0.0 µM in series [1] (Group B (20 mg BKI 1369/kg BW; 2 dpi), SD 4, −24 h (before treatment)). For the same compound, the “Concentration in pooled fecal samples” value is 0.0 µM in series [1] (Group B (20 mg BKI 1369/kg BW; 2 dpi), SD 5, 2 h post first-dose); 0.8 µM in series [1] (Group B (20 mg BKI 1369/kg BW; 2 dpi), SD 6, 24 h post first-dose); 53.5 µM in series [1] (Group B (20 mg BKI 1369/kg BW; 2 dpi), SD 7, 48 h post first-dose); 0.0 µM in series [1] (Group B (20 mg BKI 1369/kg BW; 2 dpi), SD 29, 576 h post first-dose); 0.0 µM in series [1] (Group C (20 mg BKI 1369/kg BW; 2 and 4 dpi), SD 4, −24 h (before treatment)); 0.0 µM in series [1] (Group C (20 mg BKI 1369/kg BW; 2 and 4 dpi), SD 5, 2 h post first-dose). Besides, the “Concentration in pooled fecal samples” value in series [1] (Group C (20 mg BKI 1369/kg BW; 2 and 4 dpi), SD 6, 24 h post first-dose) is 130.0 µM; in series [1] (Group C (20 mg BKI 1369/kg BW; 2 and 4 dpi), SD 7, 48/2 h post 2nd dose), 280.8 µM; in series [1] (Group C (20 mg BKI 1369/kg BW; 2 and 4 dpi), SD 8, 72/24 h post 2nd dose), 331.6 µM; in series [1] (Group C (20 mg BKI 1369/kg BW; 2 and 4 dpi), SD 9, 96/48 h post 2nd dose), 537.0 µM. In addition, the Cmax (usually the highest concentration seen after dosing) came out at 60.8 µM in series [1] (Group A: single treatment 20 mg BKI 1369/kg on SD 3, pooled feces); 537 µM in series [1] (Group C: 20 mg BKI 1369/kg on SD 5 and SD 7, pooled feces). In addition, the “Fecal Tmax” value in series [1] (Group A: single treatment 20 mg BKI 1369/kg on SD 3, pooled feces, post dose) is given as 48 h; in series [1] (Group B: single treatment 20 mg BKI 1369/kg on SD 5, pooled feces, post-dose) it was 48 h; in series [1] (Group C: 20 mg BKI 1369/kg on SD 5 and SD 7, pooled feces, post first-dose) it was 96 h. For the same compound, the “Excretion via the feces (in words)” value in series [1] (after oral BKI 1369, piglets) is reported as “major metabolite excreted in the feces”.
